Source: ChEMBL document CHEMBL4334526, “Synthesis of Peptoid-Based Class I-Selective Histone Deacetylase Inhibitors with Chemosensitizing Properties” (J Med Chem, 2019)
One block for each compound: values may come before it. Calls of active or inactive are those of the source. The calls are words filed in the database; no cut-off is given here.

How the values were obtained:
[1] = molecular target: T1, Class 1 histone deacetylase (Homo sapiens, UniProt Q13547+O15379+Q92769+Q9BY41); assay: Inhibition of class 1 HDAC in human Cal27CisR cells assessed as potentiation of cisplatin-induced cytotoxicity by measuring fold reduction in cisplatin IC50 at […] preincubated for 48 hrs followed by cisplatin addition and measured after 72 hrs by MTT assay relative to cisplatin IC50; type: cell-based
T1 sequence (O15379 whole entry, looked up): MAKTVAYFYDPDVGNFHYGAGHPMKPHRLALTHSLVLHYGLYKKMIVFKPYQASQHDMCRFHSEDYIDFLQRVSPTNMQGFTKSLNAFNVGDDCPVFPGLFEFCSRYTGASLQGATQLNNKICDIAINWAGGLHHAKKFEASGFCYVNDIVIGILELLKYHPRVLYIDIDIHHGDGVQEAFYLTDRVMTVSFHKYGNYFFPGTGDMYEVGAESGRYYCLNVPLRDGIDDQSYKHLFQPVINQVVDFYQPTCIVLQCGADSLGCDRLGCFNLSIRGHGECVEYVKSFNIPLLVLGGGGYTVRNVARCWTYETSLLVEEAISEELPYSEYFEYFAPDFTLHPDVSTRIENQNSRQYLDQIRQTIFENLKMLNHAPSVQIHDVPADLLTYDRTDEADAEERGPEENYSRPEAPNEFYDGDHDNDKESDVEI
T1 sequence (Q13547 whole entry, looked up): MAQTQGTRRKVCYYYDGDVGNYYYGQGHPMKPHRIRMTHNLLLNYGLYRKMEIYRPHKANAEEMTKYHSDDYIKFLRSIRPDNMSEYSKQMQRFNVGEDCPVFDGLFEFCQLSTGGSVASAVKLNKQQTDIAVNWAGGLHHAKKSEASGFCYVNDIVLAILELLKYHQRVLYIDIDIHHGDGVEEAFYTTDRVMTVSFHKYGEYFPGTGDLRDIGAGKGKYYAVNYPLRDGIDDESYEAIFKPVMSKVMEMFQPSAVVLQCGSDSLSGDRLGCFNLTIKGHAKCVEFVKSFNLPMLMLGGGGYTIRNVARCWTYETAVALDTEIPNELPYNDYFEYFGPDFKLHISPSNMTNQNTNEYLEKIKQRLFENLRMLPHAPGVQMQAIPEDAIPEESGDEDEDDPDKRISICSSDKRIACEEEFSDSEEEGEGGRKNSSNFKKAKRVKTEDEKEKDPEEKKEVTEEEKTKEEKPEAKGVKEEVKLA
T1 sequence (Q92769 whole entry, looked up): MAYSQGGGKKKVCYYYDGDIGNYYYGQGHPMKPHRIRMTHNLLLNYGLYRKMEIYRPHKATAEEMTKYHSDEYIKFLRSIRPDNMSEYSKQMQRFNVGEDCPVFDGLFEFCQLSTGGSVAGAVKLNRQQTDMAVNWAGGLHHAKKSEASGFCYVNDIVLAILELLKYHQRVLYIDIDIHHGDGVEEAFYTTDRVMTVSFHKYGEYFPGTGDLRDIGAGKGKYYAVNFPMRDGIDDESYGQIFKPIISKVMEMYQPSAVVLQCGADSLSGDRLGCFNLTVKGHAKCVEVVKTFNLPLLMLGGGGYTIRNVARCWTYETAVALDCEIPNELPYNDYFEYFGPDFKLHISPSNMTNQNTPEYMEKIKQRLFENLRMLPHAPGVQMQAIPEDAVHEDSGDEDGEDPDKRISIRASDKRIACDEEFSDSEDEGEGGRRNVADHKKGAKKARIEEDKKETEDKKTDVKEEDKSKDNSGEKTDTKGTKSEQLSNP
T1 sequence (Q9BY41 whole entry, looked up): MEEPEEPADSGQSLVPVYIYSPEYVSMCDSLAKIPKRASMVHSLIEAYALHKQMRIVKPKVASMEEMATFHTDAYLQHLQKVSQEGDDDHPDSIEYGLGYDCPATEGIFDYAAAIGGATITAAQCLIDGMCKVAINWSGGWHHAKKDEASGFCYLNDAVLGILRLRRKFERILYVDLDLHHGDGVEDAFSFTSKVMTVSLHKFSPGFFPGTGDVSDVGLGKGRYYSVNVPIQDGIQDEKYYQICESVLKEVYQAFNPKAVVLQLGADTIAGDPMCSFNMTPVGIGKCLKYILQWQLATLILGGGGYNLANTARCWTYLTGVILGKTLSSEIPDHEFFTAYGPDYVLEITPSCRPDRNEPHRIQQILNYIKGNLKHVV

[2] = molecular target: T1, Class 1 histone deacetylase; assay: Inhibition of class 1 HDAC in human Cal27CisR cells assessed as potentiation of cisplatin-induced apoptosis by measuring increase in accumulation at sub-G1 phase at […] preincubated for 48 hrs followed by cisplatin addition and measured after 24 hrs by propidium iodide staining based flow cytometry; type: cell-based
[3] = Induction of apoptosis in human Cal27CisR cells assessed as caspase-3/7 activation at […] measured after 48 hrs by CellEvent caspase 3/7 green detection reagent/Hoechst 33342 staining based imaging analysis relative to control; type: functional
[4] = molecular target: T2, Protein deacetylase HDAC6 (Homo sapiens) (UniProt Q9UBN7); assay: Inhibition of HDAC6 in human CAL27 cells assessed as acetylation of alpha-tubulin at […] measured after 24 hrs by immunoblot analysis; type: cell-based
T2 sequence (whole entry): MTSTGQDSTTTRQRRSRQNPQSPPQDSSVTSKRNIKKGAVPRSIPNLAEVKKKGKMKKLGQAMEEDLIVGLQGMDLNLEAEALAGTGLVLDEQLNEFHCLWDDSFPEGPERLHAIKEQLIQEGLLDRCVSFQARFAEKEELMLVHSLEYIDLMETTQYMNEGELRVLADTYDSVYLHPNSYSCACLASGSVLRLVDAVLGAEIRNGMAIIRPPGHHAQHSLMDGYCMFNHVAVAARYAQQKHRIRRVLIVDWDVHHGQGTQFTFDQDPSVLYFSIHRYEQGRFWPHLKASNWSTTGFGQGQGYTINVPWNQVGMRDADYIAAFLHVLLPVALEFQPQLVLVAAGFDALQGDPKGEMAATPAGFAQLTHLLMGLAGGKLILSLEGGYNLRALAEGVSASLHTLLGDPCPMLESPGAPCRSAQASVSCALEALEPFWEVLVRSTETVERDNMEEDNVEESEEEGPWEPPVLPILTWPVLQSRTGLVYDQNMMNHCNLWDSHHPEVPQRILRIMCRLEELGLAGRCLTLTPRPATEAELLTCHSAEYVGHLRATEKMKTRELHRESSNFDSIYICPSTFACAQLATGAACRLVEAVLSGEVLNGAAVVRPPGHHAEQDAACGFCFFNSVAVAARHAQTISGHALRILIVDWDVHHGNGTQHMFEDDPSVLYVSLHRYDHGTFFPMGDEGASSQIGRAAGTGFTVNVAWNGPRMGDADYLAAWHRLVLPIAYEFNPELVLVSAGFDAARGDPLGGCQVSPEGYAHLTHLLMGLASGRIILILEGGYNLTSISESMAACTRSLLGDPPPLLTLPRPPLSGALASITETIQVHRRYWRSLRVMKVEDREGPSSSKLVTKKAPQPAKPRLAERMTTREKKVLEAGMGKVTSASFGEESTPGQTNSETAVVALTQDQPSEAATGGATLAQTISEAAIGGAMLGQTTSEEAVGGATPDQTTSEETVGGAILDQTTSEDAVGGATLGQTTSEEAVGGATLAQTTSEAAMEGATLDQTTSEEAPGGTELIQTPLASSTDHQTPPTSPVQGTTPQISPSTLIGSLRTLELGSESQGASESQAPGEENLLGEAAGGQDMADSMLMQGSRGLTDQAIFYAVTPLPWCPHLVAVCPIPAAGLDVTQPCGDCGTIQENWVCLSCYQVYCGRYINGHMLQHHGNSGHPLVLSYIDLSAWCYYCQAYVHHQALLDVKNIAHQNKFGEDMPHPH

[5] = molecular target: T1, Class 1 histone deacetylase; assay: Inhibition of class 1 HDAC in human CAL27 cells assessed as potentiation of cisplatin-induced cytotoxicity by measuring cisplatin IC50 at […] preincubated for 48 hrs followed by cisplatin addition and measured after 72 hrs by MTT assay (reference value: 9.79 uM); type: cell-based; details: cal-27
[6] = Induction of apoptosis in human Cal27CisR cells assessed as accumulation at sub-G1 phase at 100 uM measured after 48 hrs by propidium iodide staining based flow cytometry relative to control; type: functional
CAL-27 = assay: Induction of apoptosis in human CAL27 cells assessed as caspase-3/7 activation at 0.5 uM measured after 48 hrs by CellEvent caspase 3/7 green detection reagent/Hoechst 33342 staining based imaging analysis relative to control; type: functional
[7] = molecular target: T1, Class 1 histone deacetylase; type: cell-based; details: cal-27
[8] = molecular target: T1, Class 1 histone deacetylase; details: CAL-27
Description: Inhibition of class 1 HDAC in human CAL27 cells assessed as potentiation of cisplatin-induced cytotoxicity by measuring combination index at 0.1 uM in presence of 0.32 uM cisplatin by MTT assay based Chou-Talalay analysis

[9] = molecular target: T1, Class 1 histone deacetylase
[10] = molecular target: T1, Class 1 histone deacetylase; remark: listed apart in the source
Description: Inhibition of class 1 HDAC in human Cal27CisR cells assessed as potentiation of cisplatin-induced cytotoxicity by measuring combination index at 0.25 uM in presence of 1 uM cisplatin by MTT assay based Chou-Talalay analysis

[11] = molecular target: T1, Class 1 histone deacetylase; assay: Inhibition of class 1 HDAC in human Cal27CisR cells assessed as potentiation of cisplatin-induced cytotoxicity by measuring combination index at 5 uM in presence of 1 uM cisplatin by MTT assay based Chou-Talalay analysis; type: cell-based
[12] = molecular target: T1, Class 1 histone deacetylase; assay: Inhibition of class 1 HDAC in human Cal27CisR cells assessed as potentiation of cisplatin-induced cytotoxicity by measuring combination index at 5 uM in presence of 10 uM cisplatin by MTT assay based Chou-Talalay analysis; type: cell-based
[13] = molecular target: T1, Class 1 histone deacetylase; assay: Inhibition of class 1 HDAC in human Cal27CisR cells assessed as potentiation of cisplatin-induced cytotoxicity by measuring combination index at 5 uM in presence of 32 uM cisplatin by MTT assay based Chou-Talalay analysis; type: cell-based
[14] = molecular target: T1, Class 1 histone deacetylase; assay: Inhibition of class 1 HDAC in human Cal27CisR cells assessed as potentiation of cisplatin-induced cytotoxicity by measuring combination index at 5 uM in presence of 100 uM cisplatin by MTT assay based Chou-Talalay analysis; type: cell-based
[15] = molecular target: T1, Class 1 histone deacetylase; assay: Inhibition of class 1 HDAC in human CAL27 cells assessed as potentiation of cisplatin-induced apoptosis by measuring increase in accumulation at sub-G1 phase at 5 uM preincubated for 48 hrs followed by cisplatin addition and measured after 24 hrs by propidium iodide staining based flow cytometry; type: cell-based; details: CAL-27
[16] = molecular target: T2, Protein deacetylase HDAC6 (Homo sapiens); assay: Inhibition of HDAC6 in human Cal27CisR cells assessed as acetylation of alpha-tubulin at 5 uM measured after 24 hrs by immunoblot analysis; type: cell-based
[17] = molecular target: T1, Class 1 histone deacetylase; assay: Inhibition of class 1 HDAC in human Cal27CisR cells assessed as potentiation of cisplatin-induced apoptosis assessed as increase in caspase-3/7 activation at 5 uM preincubated for 48 hrs followed by cisplatin addition and measured after 24 hrs by CellEvent caspase 3/7 green detection reagent/Hoechst 33342 staining based imaging analysis; type: cell-based

Compound: Cc1cc(C)cc(C(=O)N(CC(=O)NCc2ccccc2)Cc2ccc(C(=O)Nc3cc(-c4ccccc4)ccc3N)cc2)c1
Ratio IC50 [1]: 5.27
inhibition [2]: Active
Activity [3]: 5.96%
inhibition [4]: inactive
IC50 [5]: 1860 nM

IC50 [7]: 1260 nM
CI [8]: < 0.2
CI [9]: < 0.2
CI [10]: 0.76
Compound: CN(C)c1ccc(C(=O)N(CC(=O)NCc2ccccc2)Cc2ccc(C(=O)Nc3ccccc3N)cc2)cc1
Activity [6]: 32.1%
Activity (CAL-27): 12%

inhibition [15]: Active
inhibition [16]: inactive
inhibition [17]: Active
Compound: Cc1cc(C)cc(C(=O)N(CCCCCC(=O)Nc2cc(-c3ccccc3)ccc2N)CC(=O)NCc2ccccc2)c1
CI [11]: < 0.2
CI [12]: 0.1
CI [13]: 0.1
CI [14]: 0.05
